# US7749962B2, “Alpha 5 beta 1 and its ability to regulate the cell survival pathway” (University of Medicine & Dentistry of NJ, priority 2002, dated 2010)
# Where two headings read alike, the source gives them in different places.
# Assays:
# [1] = target: RhoA (Homo sapiens, UniProt P61586); settings: target RhoA, cited from earlier work
# [2] = tested on: MCF-7 cells; assay: Clonogenicity ± fibronectin with FGF-2 and fibronectin-blocking peptide; assay type: cell-based; settings: FGF-2 10 ng/ml; peptide 1 ng/ml added after 3 days, counted 6 days later
# Method: 10^3 MCF-7 (and T-47D, not shown) cells were incubated±fibronectin with 10 ng/ml FGF-2. Fibronectin-blocking peptide GRGDSP 1 ng/ml (American Peptide Co., Inc, Sunnyvale, Calif.) was added after 3 days and 4, 8 and 12 cell colonies were counted 6 days later.
# (§1) MCF-7, SK-Br-3, MDA-MB-231, PC-3 and LNCaP cells were purchased from the American Type Culture Collection (ATCC), (Rockville, Md.). Cells were cultured in Dulbecco's Modified Eagle's Medium (DMEM) (Gibco BRL, Gaithersburg, Md.) with phenol red 15 mg/l, 2 mM glutamine, 10% heat inactivated fetal calf serum (FCS) and penicillin 50 units/ml and streptomycin 50 micrograms μg/ml (Gemini Bioproducts, Calabasas, Calif.). One to ten thousand cells were incubated on 24 well tissue culture plates that were either commercially coated for tissue culture (uncoated) or coated with 20 g fibronectin, laminin I, collagen I or collagen IV, depending on the cell type or experimental conditions described in the figure legends. Colonies were manually counted at 100× magnification after variable days in culture as described in the figure legends after removing the media and staining cells with crystal violet. Proliferation kinetics were performed as before^1 using 2% trypan blue counts on trypsinized cells on the days indicated in the figure in triplicate plates.
# [3] = tested on: Akt; assay: Western blot of Akt phosphorylation after ATRA; assay type: cell-based
# Method: MCF-7 cells were treated with EGF 100 ng/ml for 10 min followed by ATRA 10^−7 M or control media 2 h later for an additional 24 h. Western blots of lysates were stained with anti-phospho-Akt ab. Cells were harvested and lysates were prepared as described^2 and analyzed as before^3.
# [4] = tested on: MCF-7 and T-47D cells; assay: Clonogenic potential with growth factors in tissue culture; assay type: cell-based; settings: growth factor 10 ng/ml
# Method: (§2) One thousand MCF-7 or MDA MB-231 cells per well were incubated in 24 well tissue culture plates with and without the presence of 10 ng/ml basic fibroblast growth factor (FGF-2) or epidermal growth factor (EFG). Plates were stained with crystal violet after a 5 day incubation and clones consisting of A. 29±2 cells and B. 8±2 cells were counted. C. Ten thousand T-47D cells per well were incubated in 24 well tissue culture plates coated with fibronectin with and without the presence of 10 ng/ml basic fibroblast growth factor (FGF-2) or epidermal growth factor (EFG). Plates were stained with crystal violet after 3 days and clones consisting of 8 or more cells were counted.
# (§3) MCF-7 and T-47D (1,000 cells/well) and MDA MB-231 (200 cells per well) were incubated in 24 well plates±10 ng/ml EFG or FGF-2 for 6 days, stained with crystal violet and clones with ≧29 actively growing cells (▪) or with ≦10 well spread, growth arrested cells ( ? ) were counted.
# as §1
# [5] = tested on: MDA-MB-231 cells; assay: as above; assay type: cell-based; settings: growth factor 10 ng/ml
# Method: as §2, §3, §1
# [6] = tested on: integrin α5; assay: Western blot of integrin α5 expression ± FGF-2; assay type: cell-based
# Method: A. Gene chip analysis of integrin α5 and β1 mRNA expression in MCF-7 cells incubated±FGF-2 for 3 or 5 days on fibronectin-coated plates. Densitometer quantitations normalized against GAPDH and actin mRNA standards are shown. B. Western blots of integrin α5 from cells incubated±FGF-2 for 3 days on tissue culture- or fibronectin-coated dishes. C. Indirect immunofluorescence of integrin α5 in T-47D cells on cover slips±FGF-2 10 ng/ml for 24 hours. D. Western blots of integrins α2, α3, α4, α6, β1, β3 and β4 in MCF-7 and T-47D cells incubated±FGF-2 for 3 days. Nonspecific bands were as loading controls.
# (§4) Cells were harvested and lysates were prepared as described^2 and analyzed as before^3.
# [7] = tested on: Akt; assay: Western blot of Akt phosphorylation by FGF-2 on fibronectin; assay type: cell-based
# Method: Western blots of lysates from MCF-7, T-47D and MDA-MB-231 cells incubated on fibronectin-coated plates with FGF-2 for up to 5 days were stained with antibody to phospho-Akt or total Akt. […] No effect was noted on total Akt levels. Stained membrane was used as a loading control.
# as §4
# RhoA, sequence (P61586 whole entry, species assumed): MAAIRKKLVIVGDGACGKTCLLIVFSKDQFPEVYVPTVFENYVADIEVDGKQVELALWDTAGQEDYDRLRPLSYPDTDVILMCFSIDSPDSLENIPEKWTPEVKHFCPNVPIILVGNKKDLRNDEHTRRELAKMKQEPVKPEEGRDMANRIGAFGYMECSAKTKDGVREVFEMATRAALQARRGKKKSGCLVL
compound,measurement,setting,value
C3 transferase,ED50,[1],2 to 5 µg/mL
same,ED50,[1]; listed as C3 transferase inhibitor,2 to 5 µg/mL
GRGDSP,colonies on fibronectin,[2],only inhibited colonies on fibronectin
same,colonies on plastic,[2],not on plastic
"CC1=C(/C=C/C(C)=C/C=C/C(C)=C/C(=O)O)C(C)(C)CCC1 [ATRA, all-trans retinoic acid]",FGF-2 induced increases in total and phosphorylated Akt,[3],reversed FGF-2 induced increases in total and Phosphorylated Akt
same,EGF-mediated phosphorylation of Akt,"[3]; MCF-7 cells, EGF 100 ng/ml, ATRA 10^−7 M for 24 h",reversed the EGF-mediated phosphorylation of Akt
"EFG: epidermal growth factor; recombinant human, R&D Systems",clonogenic potential,[4],no effect
same,growth (clonogenic potential),[5],no effect
"FGF-2: fibroblast growth factor 2, basic fibroblast growth factor; recombinant human, R&D Systems",clonogenic potential,[4],markedly diminished clonogenic potential
same,growth (clonogenic potential),[5],no effect
same,integrin α5 expression,[6]; MCF-7 and T-47D cells on plastic or fibronectin-coated dishes,induction of integrin α5 expression
same,integrin α5 expression,"[6]; MDA-MB-231 cells, baseline high levels",No effect
same,phosphorylation of Akt,"[7]; MCF-7 and T-47D cells on fibronectin, up to 5 days",induced phosphorylation of Akt
same,phosphorylation of Akt,"[7]; MDA-MB-231 cells on fibronectin, constitutive phosphorylation",no effect on constitutive Akt phosphorylation
